Measurements published in patent publication US20250230193A1, “CYCLIC COMPOUND HAVING SELECTIVE KRAS INHIBITORY EFFECT ON HRAS AND NRAS” (CHUGAI SEIYAKU KABUSHIKI KAISHA, priority 2022, published 2025).
Where a SMILES comes first, the peptide text is derived from it. Bridges are numbered along the chain shown (N, C = ends). [ ]: non-standard residue; d: D form. hPhe(3-Cl-4-CF3) = N[C@@H](CCc1ccc(C(F)(F)F)c(Cl)c1)C(=O)O; NPrPhe(4-CF3) = CCCN[C@@H](Cc1ccc(C(F)(F)F)cc1)C(=O)O; NMeGly(cPent) = CN[C@H](C(=O)O)C1CCCC1; Pro(4,4-F2) = O=C(O)[C@@H]1CC(F)(F)CN1; NMeD = CN[C@@H](CC(=O)O)C(=O)O; NMeL = CN[C@@H](CC(C)C)C(=O)O; NMeA = CN[C@@H](C)C(=O)O; Ac5c = NC1(C(=O)O)CCCC1; Aze = O=C(O)[C@@H]1CCN1; Sar = CNCC(=O)O

How the values were obtained:
[1] = biological target: GDP-bound HRAS wild-type protein (Homo sapiens, UniProt P01112); test: Binding to HRAS by surface plasmon resonance (SPR), Single Cycle Kinetics
Sequence of GDP-bound HRAS wild-type protein (P01112 whole entry): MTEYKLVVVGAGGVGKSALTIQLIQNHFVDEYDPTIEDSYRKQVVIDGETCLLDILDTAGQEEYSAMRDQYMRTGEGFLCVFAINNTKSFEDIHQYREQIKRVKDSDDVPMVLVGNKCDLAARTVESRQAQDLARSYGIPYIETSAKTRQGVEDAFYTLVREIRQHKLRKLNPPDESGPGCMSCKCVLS

[2] = biological target: GDP-bound NRAS wild-type protein (Homo sapiens, UniProt P01111); test: Binding to NRAS by surface plasmon resonance (SPR), Single Cycle Kinetics
Sequence of GDP-bound NRAS wild-type protein (P01111 whole entry): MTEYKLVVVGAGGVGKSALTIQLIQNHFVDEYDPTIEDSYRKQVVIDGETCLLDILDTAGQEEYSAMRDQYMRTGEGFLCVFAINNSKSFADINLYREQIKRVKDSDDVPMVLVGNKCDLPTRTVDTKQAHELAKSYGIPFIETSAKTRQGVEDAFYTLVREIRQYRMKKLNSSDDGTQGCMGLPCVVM

[3] = KD ratio, GDP-bound HRAS wild-type vs GDP-bound KRAS wild-type, SPR
[4] = KD ratio, GDP-bound NRAS wild-type vs GDP-bound KRAS wild-type, SPR
[5] = SPR, GDP-bound wild-type proteins

`CC[C@H](C)[C@@H]1NC(=O)[C@H](CC2CC2)N(C)C(=O)C[C@@H](C(=O)N(C)C)N(C)C(=O)[C@H](C2CCCC2)N(C)C(=O)C2(CCC2)N(C)C(=O)[C@@H]2CCCN2C(=O)[C@H](CCc2cc(F)c(C(F)(F)F)c(F)c2)NC(=O)CN(C)C(=O)[C@H](Cc2ccc(C)cc2)N2CC/C=C\C[C@@H](C2=O)N(C)C(=O)[C@@H]2CCCN2C1=O` [PP1798] was tested, and the “HRAS/KRAS (ratio of KD value for HRAS to KD value for KRAS)” value [1, 3] was “B (a compound having 3 or more and less than 10 is denoted as B)” and the “NRAS/KRAS (ratio of KD value for NRAS to KD value for KRAS)” value [2, 4] was “A (a compound having 10 or more and less than 20 is denoted as A)”.
In the case of `CCCN1C(=O)[C@@H]2CCN2C(=O)[C@H](C)N(C)C(=O)[C@H]([C@@H](C)CC)NC(=O)[C@H](CC(C)C)N(C)C(=O)C[C@@H](C(=O)N(C)C)N(C)C(=O)[C@H](C2CCCC2)N(C)C(=O)C2(CCCC2)NC(=O)[C@@H]2CC(F)(F)CN2C(=O)[C@H](CCc2ccc(C(F)(F)F)c(Cl)c2)NC(=O)CN(C)C(=O)[C@@H]1Cc1ccc(C(F)(F)F)cc1` [PP0436] ([NMeL]I[NMeA][Aze][NPrPhe(4-CF3)][Sar][hPhe(3-Cl-4-CF3)][Pro(4,4-F2)][Ac5c][NMeGly(cPent)][NMeD]-NMe2; lactam N-11), the “HRAS/KRAS (ratio of KD value with respect to GDP-bound HRAS wild-type protein to KD value with respect to KRAS)” value ([1]; SPR) is reported as “C (A compound having a KD ratio of 0.1 or more and less than 3 is denoted as C)” and the “NRAS/KRAS (ratio of KD value with respect to GDP-bound NRAS wild-type protein to KD value with respect to KRAS)” value ([2]; SPR) is reported as “C (A compound having a KD ratio of 0.1 or more and less than 3 is denoted as C)”.
With `CCC(CC)[C@H]1C(=O)N(C)[C@H](C(=O)N(C)C)CC(=O)N(C)[C@@H](COC)C(=O)N[C@@H]([C@@H](C)CC)C(=O)N(C)CC(=O)N(C)[C@H]2C/C=C\CCN(C2=O)[C@@H](Cc2ccc(C)cc2)C(=O)N(C)CC(=O)N[C@@H](CCc2ccc(C(F)(F)F)c(Cl)c2)C(=O)N2CC3(CC3)C[C@H]2C(=O)NC2(CC(C)(C)C2)C(=O)N1C` [PP2967] the “HRAS/KRAS (ratio of KD value with respect to GDP-bound HRAS wild-type protein to KD value with respect to KRAS)” value ([1]; class symbols) was “A (a compound having 10 or more and less than 20 is denoted as A)” and the “NRAS/KRAS (ratio of KD value with respect to GDP-bound NRAS wild-type protein to KD value with respect to KRAS)” value ([2]; class symbols) was “AA (a compound having 20 or more is denoted as AA)”.
`CCO[C@@H]1C[C@H]2C(=O)NC3(CCC3)C(=O)N(C)[C@@H](C(C)C)C(=O)N(C)[C@H](C(=O)N(C)C)CC(=O)N(C)[C@@H](CC)C(=O)N[C@@H]([C@@H](C)CC)C(=O)N(C)CC(=O)N(C)[C@H]3C/C=C\CCN(C3=O)[C@@H](Cc3ccc(C(F)(F)F)cc3)C(=O)N(C)CC(=O)N[C@@H](CCc3cc(F)c(C(F)(F)F)c(F)c3)C(=O)N2C1` [PP1088] was tested, and the “HRAS/KRAS (ratio of KD value with respect to HRAS to KD value with respect to KRAS)” value [1, 3] was “A (a compound having 10 or more and less than 20 is denoted as A)” and the “NRAS/KRAS (ratio of KD value with respect to NRAS to KD value with respect to KRAS)” value [2, 4] was “A (a compound having 10 or more and less than 20 is denoted as A)”.
With `CCC[C@H]1C(=O)N[C@@H](C2CCCC2)C(=O)N(C)CC(=O)N(C)[C@H]2C/C=C\CCN(C2=O)[C@@H](Cc2ccc(C(F)(F)F)cc2)C(=O)N(C)CC(=O)N[C@@H](CCc2ccc(C(F)(F)F)c(Cl)c2)C(=O)N2CC3(CC3)C[C@H]2C(=O)NC2(CC(C)(C)C2)C(=O)N(C)[C@@H](C2CCCC2)C(=O)N(C)[C@H](C(=O)N(C)C)CC(=O)N1C` [PP2986] the “HRAS/KRAS (ratio of KD value with respect to GDP-bound HRAS wild-type protein to KD value with respect to KRAS)” value [1, 5] was “A (a compound having 10 or more and less than 20 is denoted as A)” and the “NRAS/KRAS (ratio of KD value with respect to GDP-bound NRAS wild-type protein to KD value with respect to KRAS)” value [2, 5] was “AA (a compound having 20 or more is denoted as AA)”.
`CCCN1C(=O)CN(C)C(=O)[C@@H]2CCN2C(=O)[C@H]([C@@H](C)CC)NC(=O)[C@H](CC(C)C)N(C)C(=O)C[C@@H](C(=O)N(C)C)N(C)C(=O)[C@H](C2CCCC2)N(C)C(=O)C2(CCCC2)NC(=O)[C@@H]2CCCN2C(=O)[C@H](CCc2ccc(C(F)(F)F)c(Cl)c2)NC(=O)CN(C)C(=O)[C@@H]1Cc1ccc(C(F)(F)F)cc1` [PP0429] ([NMeL]I[Aze][Sar][NPrPhe(4-CF3)][Sar][hPhe(3-Cl-4-CF3)]P[Ac5c][NMeGly(cPent)][NMeD]-NMe2; lactam N-11) was tested, and the “HRAS/KRAS (ratio of KD value with respect to GDP-bound HRAS wild-type protein to KD value with respect to KRAS)” value ([1]; SPR) was “C (A compound having a KD ratio of 0.1 or more and less than 3 is denoted as C)” and the “NRAS/KRAS (ratio of KD value with respect to GDP-bound NRAS wild-type protein to KD value with respect to KRAS)” value ([2]; SPR) was “B (a compound having 3 or more and less than 10 is denoted as B)”.
With `CCO[C@@H]1C[C@H]2C(=O)NC3(CC(C)(C)C3)C(=O)N(C)[C@@H](C(CC)CC)C(=O)N(C)[C@H](C(=O)N(C)C)CC(=O)N(C)[C@@H](CC(C)C)C(=O)N[C@@H]([C@@H](C)CC)C(=O)N(C)CC(=O)N(C)[C@H]3C/C=C\CCN(C3=O)[C@@H](Cc3ccc(C)cc3)C(=O)N(C)CC(=O)N[C@@H](CCc3ccc(C(F)(F)F)c(Cl)c3)C(=O)N2C1` [PP2148] the “HRAS/KRAS (ratio of KD value with respect to HRAS to KD value with respect to KRAS)” value ([1]; SPR, GDP-bound HRAS wild-type vs GDP-bound KRAS wild-type) was “A (a compound having 10 or more and less than 20 is denoted as A)” and the “NRAS/KRAS (ratio of KD value with respect to NRAS to KD value with respect to KRAS)” value ([2]; SPR, GDP-bound NRAS wild-type vs GDP-bound KRAS wild-type) was “A (a compound having 10 or more and less than 20 is denoted as A)”.
